Source: paper PMC8846360, “Structural Optimization and Improving Antitumor Potential of Moreollic Acid from Gamboge” (Molecules, 2022)
Where two headings read alike, the source gives them in different places.

What was measured:
[1] = test system: human colon cancer cells (DLD1); assay: CCK-8 cell proliferation assay, DLD1; type: cell-based; conditions: read-out: IC50 ± SD DLD1
Method: (§1) To further assess the antitumor activities of synthesized compounds against human colon cancer cells, the effects of each synthesized compound on the viability of two additional human colon cancer cells (SW620, DLD1) were evaluated, and normal human colonic epithelial cells (NCM460) were used as a control. It is obvious that all the synthesized compounds display potential antitumor activities against HCT116, DLD1, and SW620 cells. […] In addition, for SW620, the activities of most optimized compounds were slightly stronger than that of 5-Fu.
(§2) HCT116, SW620, and DLD1 were purchased from American Type Culture Collection (ATCC). SW620 and DLD1 were cultured in Dulbecco’s Modified Eagles medium (Thermo), and HCT116 was cultured in McCoy’s 5A medium (Thermo). All media were supplemented with 10% fetal bovine serum (Thermo) and 1% penicillin/streptomycin. All the cells were passaged at approximately 80% confluency. Cells were tested for mycoplasma every two months, and only mycoplasma-negative cells were used
(§3) To investigate the effects of compounds on tumor cells’ proliferation, the cell proliferation assay was performed using the Cell Counting Kit-8 (#40203ES60, Yeasen, Shanghai, China). In brief, cells were seeded in a 96-well plate at 3 × 10^3 cells per well and cultured overnight. Then, the medium was replaced with fresh DMEM medium containing various concentrations of compounds or vehicle. After 48 h of incubation, the medium was exchanged with 100 μL of FBS-free DMEM medium supplemented with 10 μL of CCK8 added to each well and incubated at 37 °C for another 2 h. Absorbance at 450 nm was measured with a microplate reader (Thermo). The experiments were performed in triplicate. The mean ± SD values presented in the figures were calculated from three independent experiments. Comparisons between groups were evaluated using GraphPad Prism version 7.0 software. p < 0.05 was considered statistically significant.

[2] = test system: human breast cancer cells (MDA-MB-231); assay: CCK-8 cell proliferation assay, MDA-MB-231; type: cell-based; conditions: 48 h, read-out: Inhibition rates (%) MDA-MB-231
Method: (§4) Initially, the target compounds were evaluated for antiproliferative activities against human non-small-cell lung cancer cells (A549), human breast cancer cells (MDA-MB-231), human esophageal cancer cells (KYSE30), and human colon cancer cells (HCT-116) at 5 μM. All of them were tested by the CCK-8 assay using 5-Fu as the positive control.
as §3

[3] = test system: normal human colonic epithelial cells (NCM460); assay: CCK-8 cell proliferation assay, NCM460; type: cell-based; conditions: read-out: IC50 ± SD NCM460
Method: as §1, §3

[4] = test system: human esophageal cancer cells (KYSE30); assay: CCK-8 cell proliferation assay, KYSE30; type: cell-based; conditions: KYSE-30, 48 h, read-out: Inhibition rates (%) KYSE30
Method: as §4, §3

[5] = test system: human non-small-cell lung cancer cells (A549); assay: CCK-8 cell proliferation assay, A549; type: cell-based; conditions: 48 h, read-out: Inhibition rates (%) A549
Method: as §4, §3

[6] = test system: human colon cancer cells (SW620); assay: CCK-8 cell proliferation assay, SW620; type: cell-based; conditions: read-out: IC50 ± SD SW620
Method: as §1, §2, §3

[7] = test system: human colon cancer cells (HCT-116); assay: CCK-8 cell proliferation assay, HCT-116; type: cell-based; conditions: for inhibition at 5 µM: read-out: Inhibition rates (%) HCT-116; for IC50: read-out: IC50 ± SD HCT116
Method: as §4, §1, §2, §3

[8] = test system: CyclinD1, CDK6, CDK4, p-Rb in NCM460 cells; assay: Immunoblot of cell-cycle regulatory proteins, NCM460; type: cell-based, human; conditions: indicated concentrations, 48 h
Method: (§5) Additionally, flow cytometric analyses were performed to determine cell-cycle distribution, where 400 ng/mL of nocodazole was used to synchronize cells in G2/M phase.
(§6) When 80% confluency was reached, cells were seeded into a 6-well plate at 3 × 10^6 cells per well and allowed to attach overnight. Then, the cells were treated with different concentrations of TH12-10 or vehicle for 48 h. Cells were lysed in RIPA buffer (#89900, Thermo, Waltham, MA, USA) supplemented with protease inhibitor cocktail (#B14002, Bimake, Houston, TX, USA) on ice for 30 min and centrifuged at 12,000 rpm for 10 min at 4 °C. Protein concentration was determined by the BCA kit and equal amounts of lysates were separated by SDS-polyacrylamide gels, and transferred to nitrocellulose membranes (#HATF00010, Millipore, Burlington, MA, USA). Then, the membranes were blocked with 5% milk in TBST for 1 h and probed with the indicated antibodies. […]
Figure 4 The contribution of TH12-10 to the cell cycle. […] (D) Quantitative analysis of NCM460 cells in G1 phase as described in (C). […]

[9] = test system: CyclinD1, CDK6, CDK4, p-Rb in DLD1 cells; assay: Immunoblot of cell-cycle regulatory proteins, DLD1; type: cell-based, human; conditions: indicated concentrations, 48 h
Method: as §5, §6
(§7) Figure 3 TH12-10 blocks S phase entry. […] (D) Quantitative analysis of DLD1 cells in G1 phase as described in (C). […]

[10] = test system: CyclinD1, CDK6, CDK4, p-Rb in SW620 cells; assay: Immunoblot of cell-cycle regulatory proteins, SW620; type: cell-based, human; conditions: indicated concentrations, 48 h
Method: as §5, §6, §7

[11] = test system: DLD1 cells; assay: Flow cytometric cell-cycle distribution, DLD1; type: cell-based, human; conditions: 6 h after nocodazole (400 ng/mL), flow cytometry
Method: as §5
Figure 3 TH12-10 blocks S phase entry. (A) Immunoblot analysis of Cyclin D1, CDK4, CDK6, and p-Rb in SW620 and DLD1 cells treated with indicated concentrations of TH12-10 for 48 h. (B) Densitometry analysis of indicated proteins as described in (A) was performed using Image J software. […] (D) Quantitative analysis of DLD1 cells in G1 phase as described in (C). All data are presented as means ± SD of three independent experiments. * p < 0.05, ** p < 0.01, *** p < 0.001. N.S., not significant. Differences were tested using one-way ANOVA (B) or the unpaired t-test with Welch’s correction (D).

[12] = NCM460, CCK-8, 48 h, normal colonic epithelial cells

| Compound | IC50 ([1]; DLD-1, CCK-8, 48 h) | IC50 ([6]; SW-620, CCK-8, 48 h) | IC50 ([7]; HCT-116, CCK-8, 48 h) | inhibition at 5 µM [2] | IC50 [3, 12] | inhibition at 5 µM [4] | inhibition at 5 µM [5] | inhibition at 5 µM ([7]; HCT-116, 5 μM, CCK-8, 48 h) | expression of CyclinD1, CDK6, CDK4 and p-Rb [8] | expression of CyclinD1, CDK6, CDK4 and p-Rb [9] | expression of CyclinD1, CDK6, CDK4 and p-Rb [10] | percentage of cells in the G1 phase vs blank control [11] | IC50 ([1]; DLD-1, 48 h) | IC50 ([3]; NCM460, 48 h) | IC50 ([6]; SW-620, 48 h) | IC50 ([7]; HCT-116, 48 h) | inhibition at 5 µM ([7]; HCT-116, 48 h) |
| --- | --- | --- | --- | --- | --- | --- | --- | --- | --- | --- | --- | --- | --- | --- | --- | --- | --- |
| COC1C2CC3C(C)(C)OC(CC=C(C)C(=O)N4CCS(=O)(=O)CC4)(C2=O)C32Oc3c(CC=C(C)C)c4c(c(O)c3C(=O)C12)C=CC(C)(C)O4 (stereo not drawn) [TH12-10] | 1100 ± 190 nM | 790 ± 120 nM | 830 ± 100 nM | 8.09 ± 0.28% | 4080 ± 110 nM | 3.65 ± 2.44% | 6.85 ± 2.16% | 88.1 ± 2.78% | no significant change | significantly decreased | significantly decreased | significantly higher | – | – | – | – | – |
| COC1C2CC3C(C)(C)OC(CC=C(C)C(=O)N4CCC(C)CC4)(C2=O)C32Oc3c(CC=C(C)C)c4c(c(O)c3C(=O)C12)C=CC(C)(C)O4 (stereo not drawn) [TH12-5] | – | – | – | 0.69 ± 1.92% | – | 5.65 ± 3.77% | 14.3 ± 2.84% | – | – | – | – | – | 2490 ± 560 nM | 5110 ± 210 nM | 1970 ± 340 nM | 2370 ± 630 nM | 85.5 ± 1.45% |
| COC1C2CC3C(C)(C)OC(CC=C(C)C(=O)N4CCC(N5CCCC5)CC4)(C2=O)C32Oc3c(CC=C(C)C)c4c(c(O)c3C(=O)C12)C=CC(C)(C)O4 (stereo not drawn) [TH12-8] | 1050 ± 230 nM | 970 ± 100 nM | 1000 ± 130 nM | 4.32 ± 1.96% | 2290 ± 10 nM | 4.04 ± 1.5% | 4.8 ± 0.63% | 87.6 ± 2.76% | – | – | – | – | – | – | – | – | – |
| COC1C2CC3C(C)(C)OC(CC=C(C)C(=O)N4CCC(c5ccccc5)CC4)(C2=O)C32Oc3c(CC=C(C)C)c4c(c(O)c3C(=O)C12)C=CC(C)(C)O4 (stereo not drawn) [TH12-7] | 1450 ± 250 nM | 1310 ± 240 nM | 1520 ± 140 nM | 2.99 ± 0.16% | 2970 ± 80 nM | -2.71 ± 0.83% | 4.59 ± 1.27% | 87.1 ± 2.37% | – | – | – | – | – | – | – | – | – |
| COC1C2CC3C(C)(C)OC(CC=C(C)C(=O)O)(C2=O)C32Oc3c(CC=C(C)C)c4c(c(O)c3C(=O)C12)C=CC(C)(C)O4 (stereo not drawn) [TH12-1, Moreollic acid] | – | – | – | -4.9 ± 0.04% | – | 20.76 ± 0.04% | 18.38 ± 0.02% | – | – | – | – | – | 1440 ± 290 nM | 3160 ± 320 nM | 1490 ± 370 nM | 1710 ± 330 nM | 83.9 ± 1.1% |

The next lines start with results.

| IC50 ([1]; DLD-1, CCK-8, 48 h) | IC50 ([6]; SW-620, CCK-8, 48 h) | IC50 ([7]; HCT-116, CCK-8, 48 h) | Compound | inhibition at 5 µM [2] | IC50 [3, 12] | inhibition at 5 µM [4] | inhibition at 5 µM [5] | inhibition at 5 µM ([7]; HCT-116, 5 μM, CCK-8, 48 h) | expression of CyclinD1, CDK6, CDK4 and p-Rb [8] | expression of CyclinD1, CDK6, CDK4 and p-Rb [9] | expression of CyclinD1, CDK6, CDK4 and p-Rb [10] | percentage of cells in the G1 phase vs blank control [11] | IC50 ([1]; DLD-1, 48 h) | IC50 ([3]; NCM460, 48 h) | IC50 ([6]; SW-620, 48 h) | IC50 ([7]; HCT-116, 48 h) | inhibition at 5 µM ([7]; HCT-116, 48 h) |
| --- | --- | --- | --- | --- | --- | --- | --- | --- | --- | --- | --- | --- | --- | --- | --- | --- | --- |
| 1670 ± 700 nM | 1590 ± 440 nM | 1680 ± 260 nM | CONC(=O)C(C)=CCC12OC(C)(C)C3CC(C1=O)C(OC)C1C(=O)c4c(O)c5c(c(CC=C(C)C)c4OC132)OC(C)(C)C=C5 (stereo not drawn) [TH12-9] | -1.76 ± 0.43% | 1630 ± 20 nM | 4.49 ± 1.05% | 8.54 ± 1.11% | 83.9 ± 2.07% | – | – | – | – | – | – | – | – | – |
| 1390 ± 190 nM | 1150 ± 130 nM | 1190 ± 250 nM | COC1C2CC3C(C)(C)OC(CC=C(C)C(=O)N4CCCCC4)(C2=O)C32Oc3c(CC=C(C)C)c4c(c(O)c3C(=O)C12)C=CC(C)(C)O4 (stereo not drawn) [TH12-2] | 0.14 ± 3.51% | 4730 ± 40 nM | 9.08 ± 2.44% | 2.51 ± 4.32% | 86.1 ± 2.83% | – | – | – | – | – | – | – | – | – |
| 7890 ± 750 nM | 2680 ± 10 nM | 620 ± 20 nM | O=c1[nH]cc(F)c(=O)[nH]1 [5-Fu, 5-fluorouracil, reference compound] | 26.6 ± 2.51% | 13600 ± 590 nM | 28 ± 2.27% | 21.1 ± 1.79% | 74.5 ± 1.1% | – | – | – | – | – | – | – | – | – |
| 7890 ± 120 nM | 7260 ± 870 nM | 7620 ± 930 nM | COC1C2CC3C(C)(C)OC(CC=C(C)C(=O)N4CCSCC4)(C2=O)C32Oc3c(CC=C(C)C)c4c(c(O)c3C(=O)C12)C=CC(C)(C)O4 (stereo not drawn) [TH12-4] | 3.13 ± 1.16% | 19900 ± 840 nM | 6.98 ± 1.99% | 11.1 ± 5.41% | 16.3 ± 4.56% | – | – | – | – | – | – | – | – | – |
| 2310 ± 230 nM | 1820 ± 330 nM | 1960 ± 200 nM | COC1C2CC3C(C)(C)OC(CC=C(C)C(=O)N4CCOCC4)(C2=O)C32Oc3c(CC=C(C)C)c4c(c(O)c3C(=O)C12)C=CC(C)(C)O4 (stereo not drawn) [TH12-3] | 1.71 ± 1.66% | 4720 ± 30 nM | 10.6 ± 2.66% | 11.6 ± 4.25% | 87.4 ± 2.49% | – | – | – | – | – | – | – | – | – |
